Common to all, as to assay type: cell membranes
Test [1] has as its target T1, Cannabinoid receptor 1 (Homo sapiens, UniProt P21554). Nature of the test: Displacement of [3H]-CP55940 from human recombinant CB1 receptor expressed in CHO-K1 cell membrane measured after 3 hrs by scintillation spectrometry.
The target in test [2] is T2, Cannabinoid receptor 2 (Homo sapiens, UniProt P34972). Put plainly: Displacement of [3H]-CP55940 from human recombinant CB2 receptor expressed in CHO-K1 cell membrane measured after 3 hrs by scintillation spectrometry.
For test [3], the target named is T1, Cannabinoid receptor 1. Nature of the test: Displacement of [3H]-CP55940 from human recombinant CB1 receptor expressed in CHO-K1 cell membrane at 1 uM measured after 3 hrs by scintillation spectrometry.
The target in test [4] is T2, Cannabinoid receptor 2. Nature of the test: Displacement of [3H]-CP55940 from human recombinant CB2 receptor expressed in CHO-K1 cell membrane at 1 uM measured after 3 hrs by scintillation spectrometry. Background: In a radioligand displacement assay an active substance lowers the binding of a labelled ligand.

T2 sequence (P34972 whole entry): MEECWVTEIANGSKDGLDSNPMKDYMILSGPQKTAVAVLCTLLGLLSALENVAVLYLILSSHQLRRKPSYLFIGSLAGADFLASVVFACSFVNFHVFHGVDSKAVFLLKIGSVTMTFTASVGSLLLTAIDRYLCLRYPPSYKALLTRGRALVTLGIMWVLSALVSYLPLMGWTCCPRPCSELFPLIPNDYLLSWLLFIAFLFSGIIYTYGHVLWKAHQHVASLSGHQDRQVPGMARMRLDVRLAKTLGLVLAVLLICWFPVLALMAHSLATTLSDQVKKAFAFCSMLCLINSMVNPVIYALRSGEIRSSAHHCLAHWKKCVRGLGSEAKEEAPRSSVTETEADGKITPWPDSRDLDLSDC
T1 sequence (P21554 whole entry): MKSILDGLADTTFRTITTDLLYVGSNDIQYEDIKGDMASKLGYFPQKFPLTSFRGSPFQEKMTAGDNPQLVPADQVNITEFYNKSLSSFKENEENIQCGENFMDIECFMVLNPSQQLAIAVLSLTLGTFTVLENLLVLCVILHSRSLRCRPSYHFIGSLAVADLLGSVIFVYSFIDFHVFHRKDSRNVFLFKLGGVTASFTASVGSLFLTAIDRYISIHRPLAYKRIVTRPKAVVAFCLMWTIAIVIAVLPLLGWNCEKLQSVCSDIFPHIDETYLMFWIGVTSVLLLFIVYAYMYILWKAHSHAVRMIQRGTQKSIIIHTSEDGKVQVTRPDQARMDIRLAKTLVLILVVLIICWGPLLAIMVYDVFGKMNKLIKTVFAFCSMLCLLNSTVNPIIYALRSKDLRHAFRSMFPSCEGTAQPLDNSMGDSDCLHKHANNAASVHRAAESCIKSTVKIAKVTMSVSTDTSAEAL

The inhibition is the change of the read-out against control, counted positive when it falls. On to `CCCCC(C)(C)c1cc(O)c2cc(Cc3ccccc3C)c(=O)oc2c1`, for which the Ki at Cannabinoid receptor 1 [1] (read-out: pKi (converted)) and at Cannabinoid receptor 2 [2] (read-out: pKi (converted)) was above 1000 nM in each case. The inhibition turned out to be 30% at Cannabinoid receptor 1 [3] and 41% at Cannabinoid receptor 2 [4] (filed as agonist).
With `CCCCC1(c2cc(O)c3cc(-c4ccc(C(F)(F)F)cc4)c(=O)oc3c2)CCCC1`, the Ki at Cannabinoid receptor 1 [1] (read-out: pKi (converted)) and at Cannabinoid receptor 2 [2] (read-out: pKi (converted)) was above 1000 nM throughout. Besides, the inhibition at Cannabinoid receptor 2 [4] was -10%.
Regarding `CCCCC1(c2cc(OC)c3cc(Cc4ccncc4)c(=O)oc3c2)CCCC1`, the Ki at Cannabinoid receptor 1 [1] (read-out: pKi (converted)) and on Cannabinoid receptor 2 [2] (read-out: pKi (converted)) was above 1000 nM throughout. Also, the inhibition came out at 28% on Cannabinoid receptor 1 [3] and 9% at Cannabinoid receptor 2 [4].
For `CCCCC1(c2cc(OC)c3cc(-c4ccccc4OC)c(=O)oc3c2)CCCC1`, the Ki at Cannabinoid receptor 1 [1] (read-out: pKi (converted)) and at Cannabinoid receptor 2 [2] (read-out: pKi (converted)) was above 1000 nM throughout. The inhibition at Cannabinoid receptor 1 [3] is -10%.
Consider `CCCCCc1cc(O)c2cc(Cc3cccnc3)c(=O)oc2c1`, for which the Ki on Cannabinoid receptor 1 [1] (read-out: pKi (converted)) and on Cannabinoid receptor 2 [2] (read-out: pKi (converted)) was above 1000 nM in each case.
Turning to `CCCCc1cc2c(OC)cc(C3(CCCC)CCCCC3)cc2oc1=O`, the Ki at Cannabinoid receptor 1 [1] (read-out: pKi (converted)) and on Cannabinoid receptor 2 [2] (read-out: pKi (converted)) was above 1000 nM each time. Moreover, at Cannabinoid receptor 2 [4], the inhibition was found to be 2%.
On to `CCCCC1(c2cc(OC)c3cc(-c4ccccc4C)c(=O)oc3c2)CCCC1`, for which the Ki at Cannabinoid receptor 1 [1] (read-out: pKi (converted)) and at Cannabinoid receptor 2 [2] (read-out: pKi (converted)) was above 1000 nM in each case.
With `CCCCC1(c2cc(OC)c3cc(CC)c(=O)oc3c2)CCCC1`, the Ki on Cannabinoid receptor 1 [1] (read-out: pKi (converted)) and at Cannabinoid receptor 2 [2] (read-out: pKi (converted)) was above 1000 nM throughout. Moreover, the inhibition on Cannabinoid receptor 1 [3] amounted to 33%; on Cannabinoid receptor 2 [4], 0%.
For `CCCCC1(c2cc(O)c3cc(Cc4ccncc4)c(=O)oc3c2)CCCC1`, the Ki on Cannabinoid receptor 1 [1] (read-out: pKi (converted)) and at Cannabinoid receptor 2 [2] (read-out: pKi (converted)) was above 1000 nM each time. Further, the inhibition at Cannabinoid receptor 2 [4] was 21%.
For `CCCCC1(c2cc(O)c3cc(Cc4ccccn4)c(=O)oc3c2)CCCC1`, the Ki on Cannabinoid receptor 1 [1] (read-out: pKi (converted)) and on Cannabinoid receptor 2 [2] (read-out: pKi (converted)) was above 1000 nM throughout. Also, the inhibition at Cannabinoid receptor 1 [3] was 34%; on Cannabinoid receptor 2 [4] (filed as agonist), 44%.
Turning to `CCCCCCC(C)(C)c1cc(OC)c2cc(Cc3ccccc3OC)c(=O)oc2c1`, the inhibition on Cannabinoid receptor 1 [3] (filed as agonist) and on Cannabinoid receptor 2 [4] (filed as agonist) was above 50% each time.
Take `CCCCCCC(C)(C)c1cc(OC)c2cc(Cc3ccccc3)c(=O)oc2c1`: the inhibition on Cannabinoid receptor 1 [3] (filed as agonist) and at Cannabinoid receptor 2 [4] (filed as agonist) was above 50% in each case.
Consider `CCCCC1(c2cc(OC)c3cc(CC)c(=O)oc3c2)CCCCC1`, for which the Ki at Cannabinoid receptor 1 [1] (read-out: pKi (converted)) and at Cannabinoid receptor 2 [2] (read-out: pKi (converted)) was above 1000 nM in each case. For the same compound, the inhibition is 6% on Cannabinoid receptor 1 [3] and -1% on Cannabinoid receptor 2 [4].
For `CCCCC1(c2cc(O)c3cc(Cc4ccncc4)c(=O)oc3c2)CCCCC1`, the Ki at Cannabinoid receptor 1 [1] (read-out: pKi (converted)) and on Cannabinoid receptor 2 [2] (read-out: pKi (converted)) was above 1000 nM throughout. Further, the inhibition on Cannabinoid receptor 1 [3] was 5%; on Cannabinoid receptor 2 [4] (filed as agonist), 46%.
In the case of `CCCCC1(c2cc(OC)c3cc(-c4ccccc4)c(=O)oc3c2)CCCC1`, the Ki at Cannabinoid receptor 1 [1] (read-out: pKi (converted)) and at Cannabinoid receptor 2 [2] (read-out: pKi (converted)) was above 1000 nM throughout. Besides, the results for the inhibition on Cannabinoid receptor 1 [3] and on Cannabinoid receptor 2 [4] were 34% and -8%, respectively.
`CCCCC1(c2cc(OC)c3cc(C)c(=O)oc3c2)CCCC1`: the Ki at Cannabinoid receptor 1 [1] (read-out: pKi (converted)) and on Cannabinoid receptor 2 [2] (read-out: pKi (converted)) was above 1000 nM in each case. Moreover, the inhibition turned out to be 16% at Cannabinoid receptor 1 [3] and 1% at Cannabinoid receptor 2 [4].
As for `CCCCC(C)(C)c1cc(O)c2cc(Cc3ccccc3O)c(=O)oc2c1`, the Ki at Cannabinoid receptor 1 [1] (read-out: pKi (converted)) and at Cannabinoid receptor 2 [2] (read-out: pKi (converted)) was above 1000 nM throughout. Also, the inhibition was 24% at Cannabinoid receptor 1 [3] and 37% on Cannabinoid receptor 2 [4].
Take `CCCCC1(c2cc(O)c3cc(C)c(=O)oc3c2)CCCC1`: the figures for the Ki at Cannabinoid receptor 1 [1] (read-out: pKi (converted)) and on Cannabinoid receptor 2 [2] (read-out: pKi (converted)) were above 1000 nM and 1000 nM, respectively. The inhibition was -10% at Cannabinoid receptor 1 [3] and 49% at Cannabinoid receptor 2 [4] (filed as agonist).
With `CCCCC1(c2cc(OC)c3cc(-c4ccc(C(F)(F)F)cc4)c(=O)oc3c2)CCCC1`, the Ki on Cannabinoid receptor 1 [1] (read-out: pKi (converted)) and at Cannabinoid receptor 2 [2] (read-out: pKi (converted)) was above 1000 nM throughout. In addition, the inhibition at Cannabinoid receptor 1 [3] is 3%; on Cannabinoid receptor 2 [4] it was -4%.
Regarding `CCCCCc1cc(OC)c2cc(Cc3ccncc3)c(=O)oc2c1`, the Ki on Cannabinoid receptor 1 [1] (read-out: pKi (converted)) and on Cannabinoid receptor 2 [2] (read-out: pKi (converted)) was above 1000 nM in each case. In addition, the inhibition at Cannabinoid receptor 1 [3] is 0%; at Cannabinoid receptor 2 [4] it was 11%.
For `CCCCCCC(C)(C)c1cc(O)c2cc(Cc3ccccc3C)c(=O)oc2c1`, the Ki on Cannabinoid receptor 1 [1] (read-out: pKi (converted)) was above 1000 nM; on Cannabinoid receptor 2 [2] (read-out: Ki), 222 nM. For the same compound, the inhibition on Cannabinoid receptor 1 [3] (filed as agonist) is 47%; on Cannabinoid receptor 2 [4] (filed as agonist), above 50%.
Regarding `CCCCC1(c2cc(O)c3cc(-c4ccccc4)c(=O)oc3c2)CCCC1`, the Ki on Cannabinoid receptor 1 [1] (read-out: pKi (converted)) and at Cannabinoid receptor 2 [2] (read-out: pKi (converted)) was above 1000 nM each time.
Consider `CCCCC1(c2cc(OC)c3cc(Cc4ccncc4)c(=O)oc3c2)CCCCC1`, for which the Ki at Cannabinoid receptor 1 [1] (read-out: pKi (converted)) and at Cannabinoid receptor 2 [2] (read-out: pKi (converted)) was above 1000 nM in each case. Also, the inhibition was found to be 26% on Cannabinoid receptor 1 [3] and 3% at Cannabinoid receptor 2 [4].
On to `CCCCCCC(C)(C)c1cc(OC)c2cc(Cc3ccccc3C(F)(F)F)c(=O)oc2c1`, for which the Ki at Cannabinoid receptor 1 [1] (read-out: pKi (converted)) and on Cannabinoid receptor 2 [2] (read-out: pKi (converted)) was above 1000 nM in each case. The inhibition on Cannabinoid receptor 1 [3] amounted to 26%; on Cannabinoid receptor 2 [4], 3%.
As to `CCCCC(C)(C)c1cc(OC)c2cc(Cc3ccccc3C)c(=O)oc2c1`, the values for the Ki at Cannabinoid receptor 1 [1] (read-out: Ki) and at Cannabinoid receptor 2 [2] (read-out: pKi (converted)) were 217 nM and above 1000 nM, respectively. Moreover, the inhibition on Cannabinoid receptor 1 [3] (filed as agonist) was above 50%; on Cannabinoid receptor 2 [4], 32%.
For `CCCCC1(c2cc(OC)c3cc(Cc4ccccn4)c(=O)oc3c2)CCCCC1`, the Ki at Cannabinoid receptor 1 [1] (read-out: pKi (converted)) and at Cannabinoid receptor 2 [2] (read-out: pKi (converted)) was above 1000 nM each time. Besides, the inhibition at Cannabinoid receptor 1 [3] (filed as agonist) was determined as 47%; on Cannabinoid receptor 2 [4], 12%.
Take `CCCCCc1cc(O)c2cc(Cc3ccncc3)c(=O)oc2c1`: the Ki at Cannabinoid receptor 1 [1] (read-out: pKi (converted)) and on Cannabinoid receptor 2 [2] (read-out: pKi (converted)) was above 1000 nM in each case. Further, the inhibition on Cannabinoid receptor 2 [4] was -5%.
Take `CCCCc1cc2c(OC)cc(C3(CCCC)CCCC3)cc2oc1=O`: the Ki on Cannabinoid receptor 1 [1] (read-out: pKi (converted)) and at Cannabinoid receptor 2 [2] (read-out: pKi (converted)) was above 1000 nM throughout. In addition, the inhibition was 15% on Cannabinoid receptor 1 [3] and -1% on Cannabinoid receptor 2 [4].
Regarding `CCCCC1(c2cc(OC)c3cc(Cc4ccccn4)c(=O)oc3c2)CCCC1`, the Ki at Cannabinoid receptor 1 [1] (read-out: pKi (converted)) and on Cannabinoid receptor 2 [2] (read-out: pKi (converted)) was above 1000 nM in each case. The inhibition amounted to 29% at Cannabinoid receptor 1 [3] and 20% at Cannabinoid receptor 2 [4].
Consider `CCCCC(C)(C)c1cc(O)c2cc(Cc3ccccc3)c(=O)oc2c1`, for which the Ki at Cannabinoid receptor 1 [1] (read-out: pKi (converted)) and on Cannabinoid receptor 2 [2] (read-out: pKi (converted)) was above 1000 nM throughout. The inhibition worked out at 12% at Cannabinoid receptor 1 [3] and 24% on Cannabinoid receptor 2 [4].
As for `CCCCCCC(C)(C)c1cc(O)c2cc(Cc3ccccc3)c(=O)oc2c1`, the inhibition at Cannabinoid receptor 1 [3] (filed as agonist) and at Cannabinoid receptor 2 [4] (filed as agonist) was above 50% each time.
Consider `CCCCC1(c2cc(OC)c3cc(CCC)c(=O)oc3c2)CCCC1`, for which the Ki on Cannabinoid receptor 1 [1] (read-out: pKi (converted)) and on Cannabinoid receptor 2 [2] (read-out: pKi (converted)) was above 1000 nM each time. Besides, the inhibition at Cannabinoid receptor 1 [3] worked out at 32%; on Cannabinoid receptor 2 [4] it was 38%.
In the case of `CCCCC(C)(C)c1cc(OC)c2cc(Cc3ccccc3)c(=O)oc2c1`, the figures for the Ki on Cannabinoid receptor 1 [1] (read-out: Ki) and at Cannabinoid receptor 2 [2] (read-out: pKi (converted)) were 486 nM and above 1000 nM, respectively. Also, the inhibition was above 50% at Cannabinoid receptor 1 [3] (filed as agonist) and 39% at Cannabinoid receptor 2 [4].
In the case of `CCCCC1(c2cc(OC)c3cc(C)c(=O)oc3c2)CCCCC1`, the Ki at Cannabinoid receptor 1 [1] (read-out: pKi (converted)) and on Cannabinoid receptor 2 [2] (read-out: pKi (converted)) was above 1000 nM each time. Further, on Cannabinoid receptor 1 [3], the inhibition stood at 9%.
`CCCCCc1cc(O)c2cc(Cc3ccccn3)c(=O)oc2c1`: the Ki on Cannabinoid receptor 1 [1] (read-out: pKi (converted)) and at Cannabinoid receptor 2 [2] (read-out: pKi (converted)) was above 1000 nM each time.
Regarding `CCCCCCC(C)(C)c1cc(O)c2cc(Cc3ccccc3O)c(=O)oc2c1`, the inhibition at Cannabinoid receptor 1 [3] (filed as agonist) and at Cannabinoid receptor 2 [4] (filed as agonist) was above 50% throughout.
As to `CCCCC1(c2cc(O)c3cc(-c4ccccc4O)c(=O)oc3c2)CCCC1`, the Ki at Cannabinoid receptor 1 [1] (read-out: pKi (converted)) and at Cannabinoid receptor 2 [2] (read-out: pKi (converted)) was above 1000 nM each time. Besides, the inhibition on Cannabinoid receptor 2 [4] was -2%.

For the origin of these results see ChEMBL document CHEMBL4842314, “Synthesis and SAR evaluation of coumarin derivatives as potent cannabinoid receptor agonists” (Eur J Med Chem, 2021).
